Measured values from patent publication US8673857B2, “Long term potentiation with cyclic-GluR6 analogs” (Brown University, priority 2009, dated 2014).
Entries after “also recorded” stand apart in the source; their conditions may differ. Starred links: 1 amine or outer side, 2 acyl side, 3 side chain; linkers in the order of their positions; H or OH if unused. Positions of bridges follow the written chain, without caps; N, C: chain ends. Residues, ends and D or L forms follow the SMILES beside them. Chains are numbered I, II in the order given. No end group written: not given here. X1 = O=C(CCN[*:2])[*:1]; βAla = NCCC(=O)O

Legend:
[1] = tested on: Schaffer Collateral-CA1 synapse; test: Sub-threshold LTP induction at Schaffer Collateral-CA1 synapse (fEPSP); parameters: species or system adult Wistar rat; conditions: for LTP induction with sub-threshold protocol: CN2097 2 μM, low intensity 1 second 100 Hz HFS that normally fails to induce LTP
Text: It would normally induce no increase in baseline fEPSP responses (lower line).
(§1) CN 2097 is effective in synaptic plasticity and is able to lower the threshold for LTP induction, as shown FIG. 2. […] Without being bound by any particular theory, it is believed that CN 2097 acts through its ability to specifically interfere with NR2B activity and expression to change the sliding threshold for synaptic plasticity, altering the ratio of NR2A:NR2B. Similarly, antagonism of NR2B has been reported to lower the threshold for synaptic plasticity, such that LTP can be induced in response to a normally impotent stimulation with NMDA agonist. […] The cell voltage was clamped at +40 mV and synaptic responses were recorded.

NMDA receptor = test: Whole cell patch recording of isolated NMDA EPSC, CA1 pyramidal neuron in hippocampal slices; conditions: perfusion in presence of NBQX 5 μM and picrotoxin 50 μM, clamped at +40 mV, CN2097 2 μM, APV 50 μM
Text: APV is a selective NMDA receptor antagonist.
as §1

[2] = tested on: WT mouse hippocampal slice; test: LTP in WT mouse hippocampal slice, one sub-threshold HFS (fEPSP slope)
Procedure: FIG. 6 presents data from a WT mouse adult hippocampal slice. An arrow indicates the time point at which one sub-threshold High Frequency Stimuli (HFS, 100 pulse in 1 second every 10 ms, 100 Hz) was applied. The white box indicates the treatment with CN2097 2 μM.
(§2) Ube3a deficient (“AS”) mice were developed previously (Jiang, Y. H. et al. Mutation of the Angelman ubiquitin ligase in mice causes increased cytoplasmic p53 and deficits of contextual learning and long-term potentiation. Neuron 21, 799-811 (1998)), were obtained through the Jackson Laboratory. Mice were bred on a 129S7 background. To obtain heterozygous mice lacking the Ube3a gene maternally (m−/p+), we crossed a heterozygous female mouse (m−/p+) with a wild-type male mouse (m+/p+). Wild type (WT) littermates (m+/p+) were used as controls.

[3] = tested on: AS mouse (Ube3am−/p+) hippocampal slices; test: LTP in AS mouse (Ube3am-/p+) hippocampal slice, three trains of HFS; conditions: CN2097 2 μM superfused 20-50 minutes, three trains of HFS 10 seconds apart at 40 minutes
Procedure: Then CN2097 2 μM was superfused from 20-50 minutes. The arrow at 40 minutes indicates three trains of High Frequency Stimuli 10 seconds apart. The HFS is 100 pulses in 1 second with an interpulse interval of 10 ms, i.e. 100 Hz. […] In AS mice this stimulation is normally unable to induce LTP (FIG. 8.). At 90-100 minutes the averaged response was 159.8+/−1.1%, n=7.
as §2

NR2B NMDAR subunit = test: Electrophysiological and biochemical preliminary studies
Text: (§3) Using Fmoc-based protocols, a series of peptide ligands were synthesized that complement the PDZ-binding domain of PSD-95 with the criteria of being membrane permeable, resistant to protease activity and biologically active. The peptide KNYKKTEV, which codes for the CRIPT PDZ-3 binding motif, was cyclized between the valine (V) and threonine (T) residues via beta-alanine linkage and either myristylated (CN2180) or linked to a poly-arginine tail (CN2097; FIG. 1) to enhance its diffusion and uptake capacity by neurons in intact tissues. Binding specificity of CN2180 was tested against a PDZ-domain array consisting of 96 distinct His-tagged PDZ domains purified and spotted on a gridded nylon membrane. […] CN 2097 acts as competitive ligand for this binding site and as such is able to disrupt the normal binding of NR2B receptors to the PSD. Also, it is believed that CN2097 disrupts NR2B downstream signaling by displacing signaling effectors attached directly or indirectly to the NR2B/PSD-95 signaling complex including CaMKII. […] Without being bound by any particular theory, this effect is believed due to the disruption of apoptotic and necrotic cell signaling pathways that propagate the cell death signal.

retina and hippocampus = test: Excitotoxic studies with lethal doses of NMDA
Text: as §3

[4] = tested on: mTOR, S6 and AKT expression pathways; test: Western blots of in vivo injected retinas, SH-SY5Y neuroblastomas and primary cerebellar granule neurons; format: cell-based
Text: Additionally, upregulation of CaMKII, an NMDAR-PSD-95 associated protein, is believed to be associated with synaptic plasticity. Biochemical analyses using western blots of in vivo injected retinas, cultured SH-SY5Y neuroblastomas and primary cultured mouse cerebellar granule neurons (CGN) was undertaken. Left and right eyes were given in vivo injections of phosphate buffered saline (PBS), NMDA, NMDA with CN 2097 and NMDA with CN5135, the retinas were then removed and lysed. CGNs were stimulated by a paradigm designed to mimic synaptic stimulation ([…] in ACSF) and SH-SY5Y cells were activated by nerve growth factor (NGF 50 ng/ml). […] Additionally CN2097 increased the expression CREB, which is also neuroprotective. Also observed were increases in levels of PSD-95.
CN2097 (2 μM) was tested after injection into eyes/retinas (lower left panel) applied to cell cultures for 5-30 minutes concurrently with either a synaptic stimulation and nerve growth factor (NGF) 50 ng/ml. CN2097 saw increased ERK, AKT1/2, p-S6K, p-S6, p-ERK, p-p38, p-CREB and PSD-95. Additionally, CN2097 (2 μM) inhibited p-JNK. CN2097S (szeto sequence used instead of Pol-Arginine) and CN5135 (2, 10 and […]), a structural analogue of CN2097 with disruptive alanine substitutions at the 0 and −2 ring positions (binding domain) were used a negative controls whilst tat-NR2B9c (TAT, 2 μM) was used as a positive control.

PI3K and AKT signaling = test: ACPD (mGluR1 agonist) signaling with CN2097 added; format: cell-based; conditions: CN2097 added to ACPD
Procedure: ACPD, an agonist of mGluR1, when CN2097 is added leads to an enhancement of PI3K and AKT signaling.

retinal ganglion cells = test: NMDA-induced ganglion cell death in the rat retina, intravitreal injection; format: in vivo
Procedure: Rat eyes were given an intravitreal injection containing 20 nmol of NMDA with 3 nmol CN2097 being co-administered or injected following NMDA insult at 1, 2 or 6 hrs. Retinal ganglion cell survival was assessed by counting fluorogold-labeled cells In an defined area (between 2 and 3 mm) from the center of the optic nerve head of each retina and compared with untreated (control) retinas.
Tests included 20 nmol NMDA vs 1.2 nmol CN2097/20 nmol NMDA.

Human plasma half-life = format: in vitro ADME
[5] = Uptake into the brain post i.v.; format: in vivo; conditions: hippocampus, cerebellum, periventricular nucleus of the hypothalmus, deep cerebellar nuclei, sub-cortex, retina
Text: In addition uptake into the deep cerebellar nuclei, in the sub-cortex and the retina are noted.

[6] = tested on: PDZ domains of other MAGUKS, MUPP1, S-SCAM, Shank and spinophilin; test: PDZ-domain array of 96 His-tagged PDZ domains; format: binding
Text: as §3

[7] = target: T1, PDZ1-PDZ2 domains of PSD-95 (Homo sapiens, UniProt P78352); test: PDZ-domain array of 96 His-tagged PDZ domains; format: binding
T1 construct: His
Text: as §3

PDZ3 domain of PSD-95 = target: T2, PDZ3 domain of PSD-95 (Homo sapiens, UniProt P78352); test: PDZ-domain array of 96 His-tagged PDZ domains; format: binding
T2 construct: His
Text: as §3

T1 sequence (P78352 65-246 limits assumed): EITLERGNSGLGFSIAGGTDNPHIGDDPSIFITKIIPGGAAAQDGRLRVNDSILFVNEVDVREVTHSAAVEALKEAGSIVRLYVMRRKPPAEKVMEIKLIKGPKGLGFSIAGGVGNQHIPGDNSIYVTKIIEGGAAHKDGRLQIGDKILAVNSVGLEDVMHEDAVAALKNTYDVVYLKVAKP
T2 sequence (P78352 313-393 limits assumed): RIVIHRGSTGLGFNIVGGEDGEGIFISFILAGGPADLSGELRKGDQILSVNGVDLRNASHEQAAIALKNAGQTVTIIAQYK

CC(C)[C@H](NC(=O)[C@@H]1CCC(=O)NCCC(=O)NCCCC[C@H](NC(=O)[C@H](CCCCN)NC(=O)[C@H](Cc2ccc(O)cc2)NC(=O)[C@H](CC(N)=O)NC(=O)[C@H](CCCCN)NC(=O)[C@@H](N)CSSC[C@H](N)C(=O)N[C@@H](CCCNC(=N)N)C(=O)N[C@@H](CCCNC(=N)N)C(=O)N[C@@H](CCCNC(=N)N)C(=O)N[C@@H](CCCNC(=N)N)C(=O)N[C@@H](CCCNC(=N)N)C(=O)N[C@@H](CCCNC(=N)N)C(=O)N[C@@H](CCCNC(=N)N)C(N)=O)C(=O)N[C@@H]([C@@H](C)O)C(=O)N1)C(=O)O [CN2097] (I: H-CKNYKKTEV-OH / II: H-CRRRRRRR-NH2; disulfide I:1-II:1; linker I:6-I:8 via X1)
duration of induced LTP ([1]; 2 μM CN 2097, 1 second 100 Hz HFS): over 60 minutes | LTP induction with sub-threshold protocol [1]: results in LTP induction | LTP induction with sub-threshold protocol ([1]; listed as CN 2097): induced a significant LTP | effect on pharmacologically isolated NMDA EPSC (NMDA receptor): lack of effect | effect on pharmacologically isolated NMDA EPSC (NMDA receptor; listed as CN 2097): does not act as an antagonist | LTP, % of baseline fEPSP slope ([2]; 2 μM treatment combined with one sub-threshold HFS (HFS1, 100 Hz)): 187.2+/−1.034% | effect of compound alone upon baseline responses ([2]; CN2097 2 μM, between 20 and 40 minutes, before HFS): no significant observed effect | LTP, averaged response at 90-100 minutes [3]: 159.8+/−1.1% | specificity toward the NR2B NMDAR subunit (NR2B NMDAR subunit): demonstrates specificity | neuroprotection against lethal doses of NMDA (retina and hippocampus): neuroprotective | expression of CREB [4]: increased | levels of PSD-95 [4]: increases | p-JNK ([4]; 2 μM): inhibiting; also recorded: inhibited | total protein expression and phosphorylation state of pro-survival signaling proteins (CamKII, ERK, AKT1/2, p-S6K, p-S6, p-ERK, p-p38, p-CREB, PSD-95) ([4]; 2 μM, 5-30 minutes, with synaptic stimulation or NGF 50 ng/ml, or injected retinas): increases in both total protein expression and phosphorylation state; also recorded: increased | PI3K and AKT signaling with ACPD (PI3K and AKT signaling): enhancement | NMDA-induced TUNEL-labeling in the retina (retinal ganglion cells; 20 nmol NMDA vs 1.2 nmol CN2097/20 nmol NMDA): blocked | ganglion cell death with post-treatment (retinal ganglion cells; 20 nmol NMDA, 3 nmol CN2097 co-administered or injected 1, 2 or 6 hrs after NMDA): neuroprotective effects | NMDA-induced poly(ADP-ribosyl)ation-immunoreactivity (PAR-IR) (retinal ganglion cells; matched paired retinas, 20 nmol NMDA): dose dependent attenuation | NMDA-induced ganglion cell loss, fluorogold retrograde labeling (retinal ganglion cells; viewed 14 days post insult): provided protection | NMDA-induced loss of plasma membrane selectivity (LPMS; necrosis) (retinal ganglion cells; vs time matched NMDA-treated retina): blocked | half-life (Human plasma half-life): ~48 min | uptake into the brain [5]: uptake into the brain has also been noted

N[C@@H](CCCP(=O)(O)O)C(=O)O [APV, reference compound]
effect on pharmacologically isolated NMDA EPSC (NMDA receptor): abolished the EPSC

CN2180: peptide KNYKKTEV cyclized between valine and threonine via beta-alanine linkage, myristylated (bridge (positions not given here) via βAla; also: cyclized between valine and threonine via beta-alanine linkage, myristylated, site not given here)
binding to PDZ domains of other MAGUKS and other PDZ-containing proteins [6]: did not bind | binding specificity to PDZ1-PDZ2 domains of PSD-95 [7]: high specificity | binding to PDZ3 domain of PSD-95 (PDZ3 domain of PSD-95): moderate binding
